Laboratory results reported in patent publication US20030022821A1, “Bioactive peptides” (priority 1998, published 2003).
Several values for one entry are separate records, joined by “and”; a condition that tells them apart may be missing. Equal entries are not always repeated. Where two headings read alike, the source gives them in different places. Square brackets hold non-standard residues; d marks the D form. Ends that are not written are not given here. Peptide text beside a SMILES is read from it.

Columns and labels:
Format in all cases: cell-based
[1] = tested on: MRSA (methicillin resistant S. aureus)
Protocol: The bacterial strains used were: Escherichia coli ATCC 25922 and Staphylococcus aureus ATCC 25923. All strains were stored at −70° C. The bacteria were grown in 2% Bacto Peptone water (Difco 1807-17-4). All tests were performed with bacteria in mid-logarithmic growth phase. Determination of the minimum inhibitory concentration (MIC) of the peptides for bacterial strains were performed in 1% Bacto Peptone water. A standard microdilution technique with an inoculum of 2×10^6 CFU/ml was used. All assays were performed in triplets. Since the peptides are positively charged and therefore could adhere to the plastic wells, we controlled the actual concentration of the peptides in the solution by HPLC. There was no difference between the concentration of the peptides before or after adding the solution to the plastic wells.
Table 13 below gives the antibacterial activity and toxicity data for some preferred peptides of the invention. MRSA is methicillin resistant S. aureus and MRSE is methicillin resistant S. epidermidis.

[2] = tested on: Staphylococcus aureus ATCC 25923
Summary of the method: (§1)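 Mid-logarithmic cultures (raised in 2% peptone water) were diluted to 2×10^6 CFU/ml and exposed to peptide dilutions in 1% Bacto Peptone water by microdilution to find the MIC. Triplicate assays; HPLC checked actual peptide concentration.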

[3] = tested on: Escherichia coli ATCC 25922
Summary of the method: as §1

human red blood cells = experiment: Hemolytic assay

Row | Molecule | MIC MRSA ([1]; methicillin resistant) | MIC S. aureus ([2]; ATCC 25923) | MIC E. coli ([3]; ATCC 25922) | MIC MRSA ([1]; Table 13) | MIC S. aureus ([2]; Table 8) [µg/mL] | MIC S. aureus ([2]; Table 13) | MIC E. coli ([3]; Table 8) [µg/mL] | MIC E. coli ([3]; Table 13) | EC50 (human red blood cells) [µM] | other results
1 | C[C@@H](NC(=O)[C@H](CCCNC(=N)N)NC(=O)[C@H](N)Cc1ccc(O)cc1)C(=O)N[C@@H](Cc1c[nH]c2ccccc12)C(=O)N[C@H](CCCNC(=N)N)C(=O)N[C@@H](Cc1c[nH]c2ccccc12)C(=O)N[C@H](C)C(=O)N[C@@H](Cc1c[nH]c2ccccc12)C(=O)N[C@H](CCCNC(=N)N)C(=O)N[C@@H](Cc1c[nH]c2ccccc12)C(=O)N[C@H](CCCNC(=N)N)C(N)=O [tyr-ARG-ala-TRP-arg-TRP-ala-TRP-arg-TRP-arg-CONH2] (H-[dY]R[dA]W[dR]W[dA]W[dR]W[dR]-NH2; N-terminus assumed) | 2.5 µg/mL | 7.5 µg/mL | 7.5 µg/mL |  |  |  |  |  |  | 
2 | CSCC[C@H](NC(=O)[C@H](CCCNC(=N)N)NC(=O)[C@H](Cc1ccc(-c2ccccc2)cc1)NC(=O)[C@H](CCC(N)=O)NC(=O)[C@H](Cc1c(S(=O)(=O)c2c(C)c(C)c3c(c2C)CCC(C)(C)O3)[nH]c2ccccc12)NC(=O)[C@H](CCCNC(=N)N)NC(=O)[C@H](CCCNC(=N)N)NC(=O)[C@H](CSCNC(C)=O)NC(=O)[C@H](CCCCN)NC(=O)[C@@H](N)Cc1ccccc1)C(=O)N[C@@H](CCCCN)C(=O)N[C@@H](CCCCN)C(=O)N[C@@H](CC(C)C)C(=O)NCC(=O)N[C@@H](C)C(=O)O [LFB Bip8 PMC] |  |  |  | 2.5 μg/ml and 1.1 μM | 5 | 2.5 μg/ml and 1.1 μM | 25 | 15.0 μg/ml and 6.3 μM |  | 
3 | YRWWRWARRW-NH2 [LFM 17-26 A7R2,8, 9W3,4, 10Y1NH2] | 1.5 µM |  | 6.2 µM | 2.5 µg/mL |  | 1.0 µg/mL |  | 10.0 µg/mL | 543 ± 56 | EC 50 (human red blood cells; Table 13, toxicity (hemolysis)): 880 ± 90 µg/mL; MIC E. coli ([3]; Table 10): 10 µg/mL
4 | CSCC[C@H](NC(=O)[C@H](CCCNC(=N)N)NC(=O)[C@H](Cc1ccc2ccccc2c1)NC(=O)[C@H](CCC(N)=O)NC(=O)[C@H](Cc1ccc2ccccc2c1)NC(=O)[C@H](CCCNC(=N)N)NC(=O)[C@H](CCCNC(=N)N)NC(=O)[C@H](CSCNC(C)=O)NC(=O)[C@H](CCCCN)NC(=O)[C@@H](N)Cc1ccccc1)C(=O)N[C@@H](CCCCN)C(=O)N[C@@H](CCCCN)C(=O)N[C@@H](CC(C)C)C(=O)NCC(=O)N[C@@H](C)C(=O)O [LFB Nal6, 8] | 2.4 µM | 9.6 µM | 4.8 µM |  | 20 |  | 10 |  | > 479 | MIC MRSA ([1]; Table 13, 8): 5.0 µg/mL; EC 50 (human red blood cells): >1000 µg/mL; % Hemolysis 10 μg/ml (human red blood cells; red cells of human, 10): 2.8%; % Hemolysis 100 μg/ml (human red blood cells; red cells of human, 100): 4.9%; MIC S. aureus ([2]; Table 13, 8): 20.0 µg/mL; MIC E. coli ([3]; Table 13, 8): 10.0 µg/mL
5 | N=C(N)NCCC[C@@H](N)C(=O)N[C@H](Cc1c[nH]c2ccccc12)C(=O)N[C@@H](Cc1c[nH]c2ccccc12)C(=O)N[C@@H](CCCNC(=N)N)C(=O)N[C@@H](Cc1ccc(O)cc1)C(=O)N[C@H](Cc1c[nH]c2ccccc12)C(=O)N[C@H](CCCNC(=N)N)C(N)=O [arg-trp-TRP-ARG-TYR-trp-arg-CONH2] (H-[dR][dW]WRY[dW][dR]-NH2) | 2.5 µg/mL | 5 µg/mL | 7.5 µg/mL |  |  |  |  |  |  | 
6 | N=C(N)NCCC[C@@H](N)C(=O)N[C@@H](Cc1c[nH]c2ccccc12)C(=O)N[C@H](Cc1c[nH]c2ccccc12)C(=O)N[C@@H](CCCNC(=N)N)C(=O)N[C@H](Cc1ccc(O)cc1)C(=O)N[C@@H](Cc1c[nH]c2ccccc12)C(=O)N[C@H](CCCNC(=N)N)C(N)=O [arg-TRP-trp-ARG-tyr-TRP-arg-CONH2] (H-[dR]W[dW]R[dY]W[dR]-NH2; N-terminus assumed) | 2.5 µg/mL | 5 µg/mL | 7.5 µg/mL |  |  |  |  |  |  | 
